Test results as given in patent US20080118436A1, “Pathological Animal Model For Non-Alcoholic Fatty Hepatitis” (priority 2004, published 2008).
Structures can show the parent of a compound that is named as a salt.

Key:
C57BL/6J male mice [1] = assay: Intraperitoneal administration of tetracycline hydrochloride for 10 days to mice fed with HFD for 8 weeks (Example 1); assay type: in vivo
From the text: (§1) In the following Examples and Comparative examples, as an animal for producing a pathologic model animal, C57BL/6J male mice (Nippon CLEA, Inc.) were used. Further, as a high-fat diet (hereinafter referred to as “HFD”), D12492 (fat content: 60 kcal%) (Research Diet Inc.) was used. As a control diet, CE-2 (Nippon CLEA, Inc.) to be used for normal rearing of mice was used. As a tetracycline antibiotic, tetracycline hydrochloride (Sigma Inc.) was used. The administration of tetracycline hydrochloride was carried out by injection of a solution of 0, 10, 30 or 100 mg/10 mL of tetracycline hydrochloride prepared with a 0.5% physiological saline solution. Here, the “solution of 0 mg/10 mL of tetracycline hydrochloride” means a 0.5% physiological saline solution.
29 mice (6 weeks of age) were divided into a group of 15 mice fed with HFD (hereinafter referred to as an “HFD group”) and a group of 14 mice fed with a control diet (hereinafter referred to as a “control group”). The following experiments related to the HFD group (15 mice) and the control group (14 mice) were assigned to Example 1 and Comparative example 1, respectively.
Feeding of HFD or control diet and intraperitoneal administration of tetracycline hydrochloride First, the mice in the HFD group and the control group were fed ad libitum with HFD and the control diet for 8 weeks, respectively. Then, the mice in the HFD group and the control group were divided into 3 groups, respectively, in such a manner that the body weight and the body fat percentage were equal in the respective groups, thereby to form 3 groups in the HFD group (5 mice×3 groups), and 3 groups in the control group (5 mice×2 groups and 4 mice×1 group). Then, tetracycline hydrochloride was intraperitoneally administered to both the HFD group and the control group at a dose of 0, 10 and 30 mg/kg/day for 10 days (hereinafter, the groups administered with tetracycline hydrochloride at a dose of 0, 10 and 30 mg/kg/day are referred to as “TC 0 group”, “TC 10 group” and “TC 30 group”, respectively). The mice were fed ad libitum with HFD or the control diet also during the period of administering tetracycline hydrochloride.
The body weight of mice was measured on 4 days before initiation of administration of tetracycline hydrochloride and on day 1, 3, 5, 7, 10 and 11 after initiation of administration thereof. FIG. 1 is a line graph showing the change in the body weight of mice intraperitoneally administered with tetracycline hydrochloride for 10 days after feeding them with HFD or the control diet for 8 weeks. […] Incidentally, in FIG. 1, the term “days” represents the number of days elapsed after initiation of administration of tetracycline hydrochloride.
On the next day after completion of administration of tetracycline hydrochloride (on day 11 after initiation of administration), the mice were anesthetized by isoflurane inhalation. After it was Confirmed that the mice lost pain sensation by pinching the tail with forceps, the mice underwent laparotomy and the blood was collected from the abdominal vena cava with a syringe containing heparin. The collected blood was centrifuged at 4° C. for 10 minutes at 7500 rpm thereby to separate plasma. The obtained plasma was cryopreserved. […]
By using the cryopreserved plasma, the plasma ALT level, plasma AST level and plasma glucose level were measured using Hitachi autoanalyzer 7070 (Hitachi Hi Technologies), and the plasma insulin level was measured using an insulin assay kit (Seikagaku Corporation). […]

C57BL/6J male mice [2] = assay: Subcutaneous administration of tetracycline hydrochloride for 10 days to mice fed with HFD for 8 weeks (Example 2); assay type: in vivo; conditions: for histopathological test of liver: mouse, in vivo, sc
From the text: as §1
20 mice (7 weeks of age) were fed ad libitum with HFD for 8 weeks. Then, the mice were divided into 4 groups (5 mice×4 groups) in such a manner that the body weight and the body fat percentage were equal in the respective groups, and subcutaneously administered with tetracycline hydrochloride at a dose of 0, 30, 60 and 100 mg/kg/day for 10 days (hereinafter, the groups administered with tetracycline hydrochloride at a dose of 0, 30, 60 and 100 mg/kg/day are referred to as “TC 0 group”, “TC 30 group”, “TC 60 group” and “TC 100 group”, respectively). The mice were fed ad libitum with HFD also during the period of administering tetracycline hydrochloride.
The body weight of mice was measured on 3 days before initiation of administration of tetracycline hydrochloride and everyday from the next day until day 11 after initiation of administration thereof. FIG. 12 is a line graph showing the change in the body weight of mice subcutaneously administered with tetracycline hydrochloride for 10 days after feeding them with HFD for 8 weeks. […] Incidentally, in FIG. 12, the term “days” represents the number of days elapsed after initiation of administration of tetracycline hydrochloride.
Blood collection and dissection were carried out in the same manner as in Example 1.
The plasma ALT level, plasma AST level, plasma insulin level and plasma glucose level were measured in the same manner as in Example 1. FIG. 13 is a bar graph showing the plasma ALT level in mice subcutaneously administered with tetracycline hydrochloride for 10 days after feeding them with HFD for 8 weeks. FIG. 14 is a bar graph showing the plasma AST level in mice subcutaneously administered with tetracycline hydrochloride for 10 days after feeding them with HFD for 8 weeks. […] FIG. 15 is a bar graph showing the plasma insulin level in mice subcutaneously administered with tetracycline hydrochloride for 10 days after feeding them with HFD for 8 weeks. […] FIG. 16 is a bar graph showing the plasma glucose level in mice subcutaneously administered with tetracycline hydrochloride for 10 days after feeding them with HFD for 8 weeks.
The hepatic TG level was measured in the same manner as in Example 1. FIG. 17 is a bar graph showing the hepatic TG level in mice subcutaneously administered with tetracycline hydrochloride for 10 days after feeding them with HFD for 8 weeks.
Measurement of Hepatic TNF-α mRNA level and hepatic IL-1β mRNA level The hepatic TNF-α mRNA level and hepatic IL-1β mRNA level were measured in the same manner as in Example 1. FIG. 18 is a bar graph showing the hepatic TNF-α mRNA level in mice subcutaneously administered with tetracycline hydrochloride for 10 days after feeding them with HFD for 8 weeks. FIG. 19 is a bar graph showing the hepatic IL-1β mRNA level in mice subcutaneously administered with tetracycline hydrochloride for 10 days after feeding them with HFD for 8 weeks.
A histopathological test of liver was carried out in the same manner as in Example 1.

[3] = HFD 8 weeks, i.p. 30 mg/kg/day for 10 days, vs normal mice
[4] = HFD group (i.p. 0, 10, 30 mg/kg/day for 10 days), vs normal mice
[5] = HFD 8 weeks, s.c. 30 mg/kg/day for 10 days, vs normal mice
[6] = HFD 8 weeks, s.c. 60 mg/kg/day for 10 days, vs normal mice
[7] = HFD 8 weeks, s.c. 100 mg/kg/day for 10 days, vs normal mice

## CN(C)[C@@H]1C(O)=C(C(N)=O)C(=O)[C@@]2(O)C(O)=C3C(=O)c4c(O)cccc4[C@@](C)(O)[C@H]3C[C@@H]12 [tetracycline hydrochloride]
C57BL/6J male mice [1]; [3]
  plasma ALT level: significantly higher
  plasma AST level: significantly higher
C57BL/6J male mice [1]; [4]
  plasma glucose level: equivalent to or higher
  plasma insulin level: equivalent to or higher
C57BL/6J male mice [1]; mouse, in vivo, ip, 30 mg/kg/day
  histopathological test of liver: presence of fatty liver and the invasion of inflammatory cells were observed
C57BL/6J male mice [2]; [5]
  plasma ALT level: significantly higher
  plasma AST level: significantly higher
  plasma insulin level: higher
C57BL/6J male mice [2]; [6]
  plasma ALT level: significantly higher
  plasma AST level: significantly higher
  plasma insulin level: higher
C57BL/6J male mice [2]; [7]
  plasma ALT level: significantly higher
  plasma AST level: significantly higher
  plasma insulin level: equivalent
C57BL/6J male mice [2]; HFD 8 weeks, s.c. any group (0, 30, 60, 100 mg/kg/day) for 10 days, vs normal mice
  plasma glucose level: higher
C57BL/6J male mice [2]; 30 mg/kg/day
  histopathological test of liver: presence of fatty liver and the invasion of inflammatory cells were observed
C57BL/6J male mice [2]; 60 mg/kg/day
  histopathological test of liver: presence of fatty liver and the invasion of inflammatory cells were observed
C57BL/6J male mice [2]; 100 mg/kg/day
  histopathological test of liver: presence of fatty liver and the invasion of inflammatory cells were observed
